System: HepaRG
Experiment: LDH release cytotoxicity, % of total lysis control; higher = more cytotoxic
Conditions: 48 h
Method in brief: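 Eight-point half-log series of test chemicals, the highest at 100 µM, were given in duplicate for 48 h to single-lot HepaRG cells on collagen I-coated 96-well plates in serum-free induction medium with 0.5% DMSO. A Tecan Safire read resorufin fluorescence from CytoTox-ONE as a measure of LDH in 50 µL spent medium, with 0.1% Triton X in total lysis wells. Percent cytotoxicity was normalized to on-plate vehicle and total lysis controls and averaged over the duplicates.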

CCC(C)(C)c1ccc(O)c(C(C)(C)CC)c1 [2,4-Di-tert-pentylphenol]
Conditions	LDH release cytotoxicity [%]
0.03162 µM	0.622
0.1 µM	-1.25
0.3162278 µM	-0.993
1 µM	-1.77
3.16228 µM	-1.69
10 µM	-1.3
31.6228 µM	-1.19
100 µM	0.754

N#CSCSC#N [Methylene bis(thiocyanate)]
Conditions	LDH release cytotoxicity [%]
0.03162 µM	0.59
0.1 µM	0.474
0.3162278 µM	-0.978
1 µM	-0.877
3.16228 µM	-0.508
10 µM	0.525
31.6228 µM	3.74
100 µM	66.1

CCOC(=O)CC(SP(=O)(OC)OC)C(=O)OCC (stereo unspecified) [Malaoxon]
Conditions	LDH release cytotoxicity [%]
0.031623 µM	-0.0319
0.1 µM	-1.49
0.316228 µM	-2.33
1 µM	-2.43
3.16228 µM	-2.14
10 µM	-2.43
31.6228 µM	-1.77
100 µM	-0.859

CC1(C)C(C=C(Cl)Cl)C1C(=O)OC(C#N)c1cccc(Oc2ccccc2)c1 (stereo unspecified) [Cypermethrin]
Conditions	LDH release cytotoxicity [%]
0.03162 µM	-0.819
0.1 µM	-1.77
0.3162278 µM	-1.92
1 µM	-2.15
3.16228 µM	-1.45
10 µM	-1.44
31.6228 µM	-0.803
100 µM	-0.801

CCOC(=O)COc1cc(-c2nn(C)c(OC(F)F)c2Cl)c(F)cc1Cl [Pyraflufen-ethyl]
Conditions	LDH release cytotoxicity [%]
0.03162 µM	0.0981
0.1 µM	-2.14
0.3162278 µM	-0.894
1 µM	-0.96
3.16228 µM	-1.01
10 µM	-0.751
31.6228 µM	0.45
100 µM	1.13

CCOP(=S)(OCC)Oc1ccc2c(C)c(Cl)c(=O)oc2c1 [Coumaphos]
Conditions	LDH release cytotoxicity [%]
0.031623 µM	-0.785
0.1 µM	-3.39
0.316228 µM	-2.36
1 µM	-2.83
3.16228 µM	-3.28
10 µM	-3.57
31.6228 µM	-2.86
100 µM	5.7

Cc1ncc(CO)c(CO)c1O [Pyridoxine]
Conditions	LDH release cytotoxicity [%]
0.03162 µM	-3.02
0.1 µM	-2.28
0.3162278 µM	-2.33
1 µM	-2.01
3.16228 µM	-2.69
10 µM	-2.47
31.6228 µM	-2.46
100 µM	1.11

CON=C(C(=O)OC)c1ccccc1CON=C(C)c1cccc(C(F)(F)F)c1 [Trifloxystrobin]
Conditions	LDH release cytotoxicity [%]
0.03162 µM	-0.083
0.1 µM	-0.478
0.3162278 µM	-0.545
1 µM	0.0357
3.16228 µM	-0.301
10 µM	0.277
31.6228 µM	0.163
100 µM	1.57

COc1cc(OC)nc(Sc2cccc(Cl)c2C(=O)O)n1 [Pyrithiobac-sodium]
Conditions	LDH release cytotoxicity [%]
0.03162 µM	-1.21
0.1 µM	-0.445
0.3162278 µM	-0.467
1 µM	-0.953
3.16228 µM	-0.133
10 µM	0.758
31.6228 µM	0.654
100 µM	2.53

O=c1[nH]sc2ccccc12 [1,2-Benzisothiazolin-3-one]
Conditions	LDH release cytotoxicity [%]
0.0327296 µM	-0.0461
0.1035 µM	-0.556
0.327296 µM	-0.331
1.035 µM	-0.299
3.27296 µM	-0.612
10.35 µM	-0.701
32.729574 µM	0.567
103.5 µM	2.85

CN(C)c1ccccc1 [N,N-Dimethylaniline]
Conditions	LDH release cytotoxicity [%]
0.030516 µM	-0.91
0.0965 µM	-1.79
0.30516 µM	-1.99
0.965 µM	-2.41
3.0515979 µM	-1.849
9.65 µM	-1.69
30.516 µM	-2.11
96.5 µM	-0.103

CCOP(=S)(OCC)OC(Cl)C(Cl)(Cl)Cl (stereo unspecified) [Chlorethoxyfos]
Conditions	LDH release cytotoxicity [%]
0.03162 µM	-1.98
0.1 µM	-1.72
0.3162278 µM	-0.757
1 µM	-2.38
3.16228 µM	-1.72
10 µM	-0.842
31.6228 µM	-1.18
100 µM	-1.1

CC(C)(OO)c1ccccc1 [Cumene hydroperoxide]
Conditions	LDH release cytotoxicity [%]
0.03162 µM	-1.39
0.1 µM	0.0774
0.3162278 µM	-0.106
1 µM	-0.2
3.16228 µM	0.797
10 µM	0.939
31.6228 µM	0.476
100 µM	1.68

CC(C)CC(C)(O)C#CC(C)(O)CC(C)C (stereo unspecified) [2,4,7,9-Tetramethyl-5-decyne-4,7-diol]
Conditions	LDH release cytotoxicity [%]
0.03162 µM	-0.689
0.1 µM	-0.678
0.3162278 µM	-0.883
1 µM	-1.4
3.16228 µM	-0.76
10 µM	-0.333
31.6228 µM	0.979
100 µM	2.91

O=C(O)CCCOc1ccc(Cl)cc1Cl [2,4-Dichlorophenoxybutyric acid]
Conditions	LDH release cytotoxicity [%]
0.03162 µM	-2.25
0.1 µM	-0.951
0.3162278 µM	-1.77
1 µM	-1.33
3.16228 µM	-1.43
10 µM	-0.351
31.6228 µM	-1.14
100 µM	0.81

FC(F)(F)C(F)(F)C(F)(F)C(F)(F)C(F)(F)C(F)(F)CCI [1H,1H,2H,2H-Perfluorooctyl iodide]
Conditions	LDH release cytotoxicity [%]
0.03162 µM	-2.1
0.1 µM	-1.68
0.3162278 µM	-1.96
1 µM	-2.44
3.16228 µM	-1.64
10 µM	-1.16
31.6228 µM	-0.32
100 µM	1

CC(C)c1cccc(C(C)C)c1N1C(=O)c2ccc(O)cc2C1=O [2-(2,6-Diisopropylphenyl)-5-hydroxy-1H-isoindole-1,3-dione]
Conditions	LDH release cytotoxicity [%]
0.03162 µM	0.356
0.1 µM	0.0666
0.3162278 µM	-0.376
1 µM	-0.99
3.16228 µM	-0.278
10 µM	-0.287
31.6228 µM	-0.0632
100 µM	0.492

O=C1CCCCCN1 [Caprolactam]
Conditions	LDH release cytotoxicity [%]
0.03162 µM	-0.496
0.1 µM	-1.92
0.3162278 µM	-1.76
1 µM	-0.953
3.16228 µM	-0.455
10 µM	-0.823
31.6228 µM	-0.101
100 µM	1.84

COc1cc(S(=O)(=O)O)c(C)cc1N=Nc1c(O)ccc2cc(S(=O)(=O)O)ccc12
Conditions	LDH release cytotoxicity [%]
0.03162 µM	-0.0925
0.1 µM	-0.495
0.3162278 µM	-0.745
1 µM	-1.36
3.16228 µM	-1.42
10 µM	-1.6
31.6228 µM	-1.96
100 µM	-2.81

CC(C)(C)c1cc(O)c(C(C)(C)C)cc1O [2,5-Di-tert-butylbenzene-1,4-diol]
Conditions	LDH release cytotoxicity [%]
0.03162 µM	-1.42
0.1 µM	-1.56
0.3162278 µM	-1.72
1 µM	-1.69
3.16228 µM	-1.49
10 µM	-1.94
31.6228 µM	-1.04
100 µM	-1.46

C=C(C)C(N)=O [Methacrylamide]
Conditions	LDH release cytotoxicity [%]
0.03162 µM	0.244
0.1 µM	-1.11
0.3162278 µM	-1.39
1 µM	-1.09
3.16228 µM	-1.32
10 µM	-0.285
31.6228 µM	-0.444
100 µM	2.64

CCOCCOCCO [2-(2-Ethoxyethoxy)ethanol]
Conditions	LDH release cytotoxicity [%]
0.03162 µM	0.116
0.1 µM	-1.88
0.3162278 µM	-1.03
1 µM	-1.82
3.16228 µM	-1.06
10 µM	-0.761
31.6228 µM	-0.843
100 µM	-0.504

CN(C)c1ccc(N=NS(=O)(=O)O)cc1 [Fenaminosulf]
Conditions	LDH release cytotoxicity [%]
0.03162 µM	-1.38
0.1 µM	-1.18
0.3162278 µM	-1.97
1 µM	-2.42
3.16228 µM	-2.64
10 µM	-3.4
31.6228 µM	-3.39
100 µM	-3.64

O=P(OCCCl)(OCCCl)OCCCl [Tris(2-chloroethyl) phosphate]
Conditions	LDH release cytotoxicity [%]
0.03162 µM	0.00945
0.1 µM	-0.629
0.3162278 µM	-0.615
1 µM	-1.15
3.16228 µM	-0.623
10 µM	-0.4
31.6228 µM	0.187
100 µM	0.367

CC(C)Oc1cccc(NC(=O)c2ccccc2C(F)(F)F)c1 [Flutolanil]
Conditions	LDH release cytotoxicity [%]
0.031623 µM	-1.37
0.1 µM	-2.54
0.316228 µM	-3.14
1 µM	-2.18
3.16228 µM	-1.81
10 µM	-1.86
31.6228 µM	-0.343
100 µM	3.01

CCN(C(=O)c1cc(C)cc(OCC(C)Nc2ccncc2)c1)C(C)C (stereo unspecified)
Conditions	LDH release cytotoxicity [%]
0.02135 µM	-1.12
0.0675 µM	-0.177
0.2134537 µM	-0.209
0.675 µM	0.1
2.13454 µM	-0.21
6.75 µM	-0.0445
21.345374 µM	0.884
67.5 µM	19

O=[N+]([O-])c1ccc(O)cc1 [Sodium 4-nitrophenolate]
Conditions	LDH release cytotoxicity [%]
0.03162 µM	-0.704
0.1 µM	-1.68
0.3162278 µM	-1.99
1 µM	-1.48
3.16228 µM	-1.71
10 µM	-1.02
31.6228 µM	-0.45
100 µM	0.91

OC1CCCCC1 [Cyclohexanol]
Conditions	LDH release cytotoxicity [%]
0.03162 µM	-1.14
0.1 µM	-1.56
0.3162278 µM	-2.24
1 µM	-1.92
3.16228 µM	-1.56
10 µM	-0.208
31.6228 µM	-0.773
100 µM	-0.073

ClC1(Cl)C2(Cl)C3(Cl)C4(Cl)C(Cl)(Cl)C5(Cl)C3(Cl)C1(Cl)C5(Cl)C24Cl (stereo unspecified) [Mirex]
Conditions	LDH release cytotoxicity [%]
0.031623 µM	1.5
0.1 µM	-1.3
0.316228 µM	-1.85
1 µM	-2.25
3.16228 µM	-1.59
10 µM	-1.21
31.6228 µM	-1.01
100 µM	0.619

CC1(C(=O)Nc2ccc(O)c(Cl)c2Cl)CCCCC1 [Fenhexamid]
Conditions	LDH release cytotoxicity [%]
0.031623 µM	-0.566
0.1 µM	-4.08
0.316228 µM	-4.43
1 µM	-3.83
3.16228 µM	-3.52
10 µM	-3.56
31.6228 µM	-3.14
100 µM	-0.0455

C[Si](Cn1cncn1)(c1ccc(F)cc1)c1ccc(F)cc1 [Flusilazole]
Conditions	LDH release cytotoxicity [%]
0.03162 µM	-1.41
0.1 µM	-1.68
0.3162278 µM	-2.26
1 µM	-1.24
3.16228 µM	-2.08
10 µM	-1.2
31.6228 µM	13.7
100 µM	42.5

Oc1ccccc1 [Phenol]
Conditions	LDH release cytotoxicity [%]
0.03162 µM	-1.29
0.1 µM	-1.84
0.3162278 µM	-1.69
1 µM	-1.85
3.16228 µM	-1.67
10 µM	-1.64
31.6228 µM	-1.18
100 µM	0.202

CNC(=O)C1OC(n2cnc3c(NCc4cc(Cl)ccc4OCc4cc(C)no4)ncnc32)C(O)C1N (stereo unspecified)
Conditions	LDH release cytotoxicity [%]
0.03162 µM	-1.47
0.1 µM	-1.47
0.3162278 µM	-1.92
1 µM	-1.97
3.16228 µM	-1.57
10 µM	-1.54
31.6228 µM	-0.977
100 µM	0.0796

CC(C)(C)CC(C)(C)c1ccc(O)cc1 [4-(1,1,3,3-Tetramethylbutyl)phenol]
Conditions	LDH release cytotoxicity [%]
0.03162 µM	-1.49
0.1 µM	-1.58
0.3162278 µM	-1.966
1 µM	-1.68
3.16228 µM	-1.21
10 µM	-1.69
31.6228 µM	-0.473
100 µM	42.9

O=[N+]([O-])c1ccc(Oc2ccc(Cl)cc2Cl)cc1 [Nitrofen]
Conditions	LDH release cytotoxicity [%]
0.03162 µM	0.322
0.1 µM	-0.97
0.3162278 µM	-0.303
1 µM	-0.821
3.16228 µM	-0.947
10 µM	0.734
31.6228 µM	0.996
100 µM	3.046

CCCCCCCCCCCCc1ccccc1 [Dodecylbenzene]
Conditions	LDH release cytotoxicity [%]
0.03162 µM	-2.1
0.1 µM	-1.71
0.3162278 µM	-1.86
1 µM	-2.59
3.16228 µM	-2.08
10 µM	-0.672
31.6228 µM	-1.17
100 µM	1.25

Nc1nc2nc[nH]c2c(=S)[nH]1 [6-Thioguanine]
Conditions	LDH release cytotoxicity [%]
0.031623 µM	1.04
0.1 µM	-2.6
0.316228 µM	-2.87
1 µM	-2.88
3.16228 µM	-2.5
10 µM	-2.64
31.6228 µM	-1.86
100 µM	-0.0388
